Where “and” joins values, the source holds several entries; their conditions need not be identical. Equal values may be shown once.
Experiments:
[1] = test system: slaughterhouse oocytes fertilized with sex sorted sperm; assay: IVF: development of eggs fertilized with OSR treated sex sorted sperm; type: cell-based, bovine; details: 3 step
Method: 1. Oocyte Collection. Collect slaughterhouse oocytes, wash 1× with about 3 mL Hepes washing media and with 1× with TCM-199 (Invitrogen, Carlsbad, Calif.)+10% Fetal Bovine Serum (FBS). Culture in maturation media for 22 hrs in a CO2 incubator at 38.5° C. In one embodiment, the maturation media contains TCM-199, FBS, pyruvate, chorionic gonadotropin (e.g., Chorulon (Intervet, Summit N.J.)), follicle stimulating hormone (FSH) (e.g., Folltropin (Bioniche, Belleville, Canada)), estradiol, and at least one antibiotic. In a further embodiment, Amikacin (Sigma-Aldrich, St. Louis, Mo.) can be used as the antibiotic. In another embodiment, the maturation media may also comprise luteinizing hormone.
2. In Vitro Fertilization. Trim away cumulus cells from matured oocytes. Transfer them to a fertilization dish and return to the CO2 incubator. Thaw frozen semen straws using standard procedures, centrifuge in […], of Pure Sperm gradient (Nidacon, Molndal, Sweden), or a percoll or similar gradient at 2500 RPM for 10 minutes to remove egg components, glycerol and other debris. Remove supernatant, leaving a loose pellet of live sperm. Combine pellets using a small amount of fertilization media and repellet at 1500 RPM for 3 minutes. Carefully remove supernatant. Then gently mix the pellet. After determining the desired insemination dose, inseminate the oocytes by adding sperm to the pellet, then culture in a dish and return to the CO2 incubator for about 18-22 hours.
3. In Vitro Culture. Remove presumptive zygotes from the fertilization dish and transfer into a sterile 1.5 mL eppendorf tube. Allow zygotes to form a loose pellet and remove excess media to form a 1:1 ratio of pellet and solution. Rinse the eppendorf tube with TCM-199, place contents into a dish and wash with BSA media. Then culture presumptive zygotes (discard disfigured oocytes, as well as oocytes with yellow colored cytoplasm or vacuolated cytoplasm) in a dual gas incubator (5% CO2, 5% O2) at 38.5° C. for about 48 hours.
4. Co-Culture. Transfer cleaved zygotes to co-culture dishes comprising the cumulus cells from the mature oocytes and FBS media topped with mineral oil, and incubate in a CO2 incubator at 38.5° C. until needed.
An experiment was designed to test the effect of OSR treated sperm cells on the development of eggs fertilized with those sperm cells. In this experiment, bull semen from two bulls was sex sorted with flow cytometry, with vitamin B12 present at equal concentrations in the media used to stain the sperm cells, in the catch fluid of the collecting vessel and in the cryoprotectant extender prior to freezing the sex sorted sample (3 step). For each bull, three different concentrations of vitamin B12 were tested: 0.05 mg/ml, 0.15 mg/ml and 0.25 mg/ml. The control samples were not treated with vitamin B12.
Slaughterhouse oocytes were collected and washed 1× with about 3 mL Hepes washing media and with 1× with TCM-199+10% FBS. The oocytes were then cultured in maturation media for 22 hrs in a CO2 incubator at 38.5° C. Cumulus cells were trimmed away from matured oocytes, transferred to a fertilization dish, and returned to the CO2 incubator.
Frozen semen straws were thawed using standard procedures and centrifuged in […], of Pure Sperm gradient at 2500 RPM for 10 minutes in order to remove egg, glycerol and other debris. The supernatant was removed, leaving a loose pellet of live sperm. Pellets were combined using a small amount of fertilization media and repelleted at 1500 RPM for 3 minutes. The supernatant was then carefully removed and the pellet gently mixed. After determining the desired insemination dose, the matured oocytes were then inseminated by adding sperm to the pellet, cultured in a dish and returned to the CO2 incubator for about 18-22 hours.
Presumptive zygotes were removed from the fertilization dish and transferred into a sterile 1.5 ml eppendorf tube. […]

sex-sorted sperm cells = assay: CASA post-thaw motility of sex sorted bull sperm treated with OSR; type: cell-based, bovine; details: 3 hr; 1 step-stain (+−−); Bull C (Jersey), Trial 2
[2] = 0.05 mg/ml, Table 4 replicates, Bulls A, B
[3] = 0.5 mg/ml, Table 5 Total/Avg per bull (A Holstein, B Jersey), Holstein bull
[4] = 0.5 mg/ml, Table 5 Total/Avg per bull (A Holstein, B Jersey), Jersey bull
[5] = 0.5 mg/ml, Table 5 replicates, Bull A (Holstein), Bull B (Jersey), Holstein bull
[6] = 0.5 mg/ml, Table 5 replicates, Bull A (Holstein), Bull B (Jersey), Jersey bull

vitamin B12 was tested, and the “4-2C, Total/Avg” value ([1]; 0.05 mg/ml, Table 4 Total/Avg per bull (A, B)) was 66 and 63, the “4-2C (zygotes at 2 cell to 4 cell transition 48 hours after IVF)” value [1, 2] was 20 (2×) and 26 and 18 and 23 and 22 and the “8C % (zygotes having 8 cells 48 hours after IVF)” value [1, 2] was 3.4% and 9.5% and 11.7% and 44.4% and 29.3% and 29.0%. For the same substance, the “8C (zygotes with 8 cells 48 hours after IVF)” value [1, 2] was 3 and 9 and 11 and 40 and 27 (2×), the “% Clv (percent cleaved 48 hours after IVF)” value [1, 2] was 26.4% and 36.8% and 33.0% and 64.4% and 54.3% and 52.7% and the “Blast % (cultured zygotes resulting in blastocyst formation)” value (“Blast %” below) [1, 2] was 1.1% and 2.1% and 4.3% and 21.1% and 16.3% and 22.6%. For the same substance, the “C1 (expanded, hatching and hatched blastocysts 7 days after IVF)” value [1, 2] was 0 (2×) and 1 and 2 and 4 and 5, the “C1− (blastocysts 7 days after IVF)” value [1, 2] was 0 (2×) and 3 (2×) and 4 and 2 and the “C2 (early blastocysts and compact morulas 7 days after IVF)” value [1, 2] was 1 (3×) and 13 (2×) and 9. For the same substance, the “Hatch # (embryos shedding the zona, 8.5 days after IVF)” value [1, 2] was 0 and 1 (2×) and 9 and 7 and 8, the “Hatch % (embryos that shed the zona)” value [1, 2] was 0.0% and 50.0% and 25.0% and 47.4% and 46.7% and 38.1% and the “Total Embs (total number of blastocysts)” value [1, 2] was 1 and 2 and 4 and 19 and 15 and 21. For the same substance, the “4-2C, Total/Avg” value [1, 3] was 72, the “8C %, Total/Avg” value [1, 3] was 35.1% and the “8C, Total/Avg” value [1, 3] was 99. The “C1−, Total/Avg” value [1, 3] was 17, the “C2, Total/Avg” value [1, 3] was 18 and the “Hatch #, Total/Avg” value [1, 3] was 16. The “Total Embs, Total/Avg” value [1, 3] was 41, the “4-2C, Total/Avg” value [1, 4] was 86 and the “8C %, Total/Avg” value [1, 4] was 35.4%. For the same substance, the “8C, Total/Avg” value [1, 4] was 104, the “C1−, Total/Avg” value [1, 4] was 22 and the “C2, Total/Avg” value [1, 4] was 13. For the same substance, the “Hatch #, Total/Avg” value [1, 4] was 20, the “Total Embs, Total/Avg” value [1, 4] was 52 and the “4-2C (zygotes at 2 cell to 4 cell transition 48 hours after IVF)” value [1, 5] was 25 and 29 and 18. For the same substance, the “8C % (zygotes having 8 cells 48 hours after IVF)” value [1, 5] was 36.2% and 31.6% and 37.6%, the “8C (zygotes with 8 cells 48 hours after IVF)” value [1, 5] was 34 and 30 and 35 and the “% Clv (percent cleaved 48 hours after IVF)” value [1, 5] was 62.8% and 62.1% and 57.0%. For the same substance, the “Blast %” value [1, 5] was 6.4% and 15.8% and 21.5%, the “C1 (expanded, hatching and hatched blastocysts 7 days after IVF)” value [1, 5] was 0 and 1 and 5 and the “C1− (blastocysts 7 days after IVF)” value [1, 5] was 3 and 7 (2×). For the same substance, the “C2 (early blastocysts and compact morulas 7 days after IVF)” value [1, 5] was 3 and 7 and 8, the “Hatch # (embryos shedding the zona, 8.5 days after IVF)” value [1, 5] was 1 and 4 and 11 and the “Hatch % (embryos that shed the zona)” value [1, 5] was 16.7% and 26.7% and 55.0%. The “Total Embs (total number of blastocysts)” value [1, 5] was 6 and 15 and 20, the “4-2C (zygotes at 2 cell to 4 cell transition 48 hours after IVF)” value [1, 6] was 40 and 31 and 15 and the “8C % (zygotes having 8 cells 48 hours after IVF)” value [1, 6] was 34.0% and 25.3% and 46.5%. For the same substance, the “8C (zygotes with 8 cells 48 hours after IVF)” value [1, 6] was 34 and 24 and 46, the “% Clv (percent cleaved 48 hours after IVF)” value [1, 6] was 74.0% and 57.9% and 61.6% and the “Blast %” value [1, 6] was 11.0% and 24.2% and 18.2%. For the same substance, the “C1 (expanded, hatching and hatched blastocysts 7 days after IVF)” value [1, 6] was 4 and 5 and 8, the “C1− (blastocysts 7 days after IVF)” value [1, 6] was 6 and 11 and 5 and the “C2 (early blastocysts and compact morulas 7 days after IVF)” value [1, 6] was 1 and 7 and 5. For the same substance, the “Hatch # (embryos shedding the zona, 8.5 days after IVF)” value [1, 6] was 5 and 6 and 9, the “Hatch % (embryos that shed the zona)” value [1, 6] was 45.5% and 26.1% and 50.0% and the “Total Embs (total number of blastocysts)” value [1, 6] was 11 and 23 and 18. The “% Motility” value (sex-sorted sperm cells) was 37%.
